Assays:
Format in all cases: in vivo
[1] = system: cotton aphid (Aphis gossypii); assay: Insecticidal test for cotton aphid (spray on infested squash cotyledons); conditions: 50 ppm spray, all life stages, 3 days, rating of % Control
Description: Insecticidal test for cotton aphid (Aphis gossypii)
To prepare spray solutions, 1 mg of each test compound was dissolved into 1 mL of a 90:10 acetone:ethanol solvent. This 1 mL of chemical solution was added to 19 mL of water containing 0.05% Tween 20 surfactant to produce a 50 ppm spray solution.
Squash cotyledons were infested with cotton aphid (all life stages)16-20 hours prior to application of spray solution. The solution was sprayed on both sides of each infested squash cotyledon (0.5 mL x 2 each side) with a sweeping action until runoff. The plants were allowed to air dry and held for 3 days in a controlled room at 26 °C and 40% RH after which time the test was graded. Grading was by actual count using a dissecting microscope and comparison of test counts to the untreated check.

[2] = system: two-spotted spider mite (Tetranychus urticae); assay: Insecticidal test for two-spotted spider mite, ovicide method; conditions: for pest or weed control: Tetranychus urticae, read-out: SM, activity against two-spotted spider mite
Description: Insecticidal test for two-spotted spider mite (Tetranychus urticae)
Ten adult female two-spotted spider mites were placed on eight 2.2 cm leaf discs of cotton leaf, allowed to oviposit over 24 hours, and thereafter removed. […] Discs were placed on an agar substrate and held at 24 °C and 90% RH for 6 days.

[3] = system: beet armyworm (Spodoptera exigua); assay: Insecticidal test for beet armyworm (treated lepidopteran diet); conditions: 2nd instar larvae, 5 days, rating of % Control; for pest or weed control at 400 ppm: Spodoptera exigua, 120 h, read-out: BAW, activity at 400 ppm against beet armyworm
Description: (§1) Insecticidal test for tobacco budworm (Heliothis virescens), beet armyworm (Spodoptera exigua), and cabbage looper (Trichoplusia ni).
(§2) To prepare test solution, the test compound was formulated at 400 ppm in 7.5 mL of 2 acetone: 1 tap water. 250 µL of the test solution was pipetted upon the surface of 8 mL of lepidopteran diet (modified Shorey) contained in each of five one-ounce plastic cups (one cup = 1 replication). […] After airdrying, the treated leaf discs were placed individually into one-ounce plastic cups. Each dried, treated cotton cotyledon disc was infested with a 2nd instar tobacco budworm larva, and each cabbage leaf disc was infested with a 2nd instar cabbage looper larva. Cups containing the treated substrates and larvae were capped and then held in a growth chamber at 25 °C, 50-55% RH, and 14 hr light: 10 hr dark for 5 days.

[4] = system: cabbage looper (Trichoplusia ni); assay: Insecticidal test for cabbage looper (leaf-dip, cabbage leaf discs); conditions: dipped cabbage leaf discs, 2nd instar larvae, 5 days, rating of % Control; for pest or weed control at 400 ppm: Trichoplusia ni, foliar, 120 h, read-out: CL, activity at 400 ppm against cabbage looper
Description: as §1, §2

[5] = system: tobacco budworm (Heliothis virescens); assay: Insecticidal test for tobacco budworm (leaf-dip, cotton cotyledon discs); conditions: dipped cotton cotyledon discs, 2nd instar larvae, 5 days, rating of % Control; for pest or weed control at 400 ppm: Heliothis virescens, 120 h, read-out: TBW, activity at 400 ppm against tobacco budworm
Description: as §1, §2

[6] = system: Sweetpotato Whitefly (Bemisia tabacia); assay: Insecticidal test for sweetpotato whitefly (spray on cotton plants); conditions: 200 ppm spray, large nymphs counted after 13 days, rating of % Control; for pest or weed control at 200 ppm: Bemisia, 312 h, read-out: WF, activity at 200 ppm against whitefly
Description: Insecticidal test for Sweetpotato Whitefly (Bemisia tabacia)
Four mg of each test compound were dissolved by adding 4 mL of a 90:10 acetone:ethanol solvent mixture to the vial containing the sample compound. This solution was added to 16 mL of water containing 0.05% Tween 20 surfactant to produce 20 mL of a 200 ppm spray solution.
Five-week-old cotton plants reared in a greenhouse were stripped of all foliage except for the two uppermost true leaves that were greater than 5 cm in diameter. These plants were then placed into a laboratory colony of whiteflies for two days for oviposition by the colony females. All whiteflies were then removed from the test plants with pressurized air. The spray solution was then applied to the test plants with a hand-held syringe fitted with hollow cone nozzle. One mL spray solution was applied to each leaf top and bottom for a total of 4 mL per plant. Four replications of each test compound utilized a total of 16 mL spray solution. Plants were air dried and then placed in a holding chamber (28 °C and 60% RH) for 13 days. Compound efficacy was evaluated by counting, under an illuminated magnifying glass, the number of large nymphs (3rd-4th instar) per leaf
Percent control based on reduction of large nymphs of a test compound compared to solution-only (no test compound) sprayed plants is reported in Table 1-8.

[7] = foliar, 144 h, ovicide method, cotton leaf discs, 6 days, rating of % Control
[8] = ovicide method, cotton leaf discs, 6 days, rating of % Control

For C[C@@H]1OC(c2c(F)cccc2F)=N[C@@H]1c1ccc(I)cc1 (racemic) [Compound 1, (4R,5S)- and (4S,5R)-4-(4-iodorphenyl)-2-(2,6-difluorophenyl)-5-methyl-4,5-dihydro-1,3-oxazole], the “CA, activity at 50 ppm against cotton aphid” value (“CA, activity at 50 ppm” for short) [1] was “A (90-100)” and the “SM, activity at 2.5 ppm against two-spotted spider mite” value (shortened to “SM, activity at 2.5 ppm”) ([2]; foliar, 144 h) was “A (90-100)”.

With C[C@H]1OC(c2c(F)cccc2F)=N[C@@H]1c1ccc(-c2ccc(OC(F)(F)F)cc2)cc1 (mixture of isomers) [Compound 27, (4R,5R)- and (4S,5S)-2-(2,6-difluorophenyl)-4-(4'-trifluoromethoxy-1,1'-biphenyl-4-yl)-5-methyl-4,5-dihydro-1,3-oxazole] the “CA, activity at 50 ppm” value [1] was “E (50-59)”, the pest or weed control [2, 7] was 90 to 100% and the pest or weed control at 400 ppm [3] was 90 to 100%. It also gave a pest or weed control at 400 ppm [4] of 90 to 100% and a pest or weed control at 400 ppm [5] of 80 to 89%.

Cc1cc(Br)ccc1[C@H]1N=C(c2c(F)cccc2F)O[C@H]1C (mixture of isomers) [Compound 38, (4R,5S)- and (4S,5R)-4-(4-bromo-2-methylphenyl)-2-(2,6-difluorophenyl)-5-methyl-4,5-dihydro-1,3-oxazole] showed a pest or weed control [2, 7] of 60 to 69% and a pest or weed control at 200 ppm [6] of less than 50%.

Cc1cc(-c2ccc(C(F)(F)F)cc2)ccc1[C@@H]1N=C(c2c(F)cccc2F)O[C@H]1C (mixture of isomers) [Compound 43, (4S,5S) - and (4R,5R)-2-(2,6-difluorophenyl)-5-methyl-4-[3-methyl-4'-(trifluoromethyl)-1,1'-biphenyl-4-yl]-4,5-dihydro-1,3-oxazole] was tested, and the pest or weed control at 400 ppm [3] was 90 to 100%, the pest or weed control at 400 ppm [4] was 90 to 100% and the pest or weed control at 200 ppm [6] was less than 50%. The pest or weed control at 400 ppm [5] was 90 to 100%.

Cc1cc(-c2ccc(C(F)(F)F)cc2)ccc1[C@H]1N=C(c2c(F)cccc2F)O[C@H]1C (mixture of isomers) [Compound 39, (4R,5S)- and (4S,5R)-2-(2,6-difluorophenyl)-5-methyl-4-[3-methyl-4'-(trifluoromethyl)-1,1'-biphenyl-4-yl]-4,5-dihydro-1,3-oxazole] gave a pest or weed control [2, 7] of 80 to 89%, a pest or weed control at 400 ppm [3] of 90 to 100% and a pest or weed control at 400 ppm [4] of 90 to 100%. It also gave a pest or weed control at 200 ppm [6] of less than 50% and a pest or weed control at 400 ppm [5] of 90 to 100%.

In the case of C[C@H]1OC(c2c(F)cccc2F)=N[C@@H]1c1ccc(I)cc1 (mixture of isomers) [Compound 22, (4R, 5R)- and (4S,5S)-4-(4-iodophenyl)-2-(2,6-difluorophenyl)-5-methyl-4,5-dihydro-1,3-oxazole], the “CA, activity at 50 ppm” value [1] was “A (90-100)”, the pest or weed control [2, 7] was 90 to 100% and the pest or weed control at 400 ppm [3] was 90 to 100%. For the same compound, the pest or weed control at 400 ppm [4] was less than 50%.

For Cc1cc(-c2ccc(OC(F)(F)F)cc2)ccc1[C@H]1N=C(c2c(F)cccc2F)O[C@H]1C (mixture of isomers) [Compound 40, (4R,5S)- and (4S,5R)-2-(2,6-difluorophenyl)-5-methyl-4[3-methyl-4'-(trifluoromethoxy)-1,1'-biphenyl-4-yl]-4,5-dihydro-1,3-oxazole], the pest or weed control [2, 7] was 80 to 89%, the pest or weed control at 400 ppm [3] was 90 to 100% and the pest or weed control at 400 ppm [4] was 90 to 100%. It also gave a pest or weed control at 200 ppm [6] of less than 50% and a pest or weed control at 400 ppm [5] of 90 to 100%.

C[C@@H]1OC(c2c(F)cccc2F)=N[C@H]1c1ccc(Br)cc1 [Compound 46, (4S,5S)-4-(4-bromophenyl)-2-(2,6-difluorophenyl)-5-methyl-4,5 dihydro-1,3-oxazole] was tested, and the “CA, activity at 50 ppm” value [1] was “A (90-100)” and the pest or weed control [2, 7] was 90 to 100%.

For C[C@@H]1OC(c2c(F)cccc2Cl)=N[C@@H]1c1ccc(-c2ccc(C(F)(F)F)cc2)cc1 (mixture of isomers) [Compound 4, (4R,5S)- and (4S,5R)-2-(2-chloro-6-fluorophenyl)-5-methyl-4-[4'-(trifluoromethyl)-1,1'-biphenyl-4-yl]-4,5-dihydro-1,3-oxazole], the “CA, activity at 50 ppm” value [1] was “A (90-100)”, the pest or weed control [2, 7] was 90 to 100% and the pest or weed control at 400 ppm [3] was 90 to 100%. For the same compound, the pest or weed control at 400 ppm [4] was 90 to 100% and the pest or weed control at 400 ppm [5] was 90 to 100%.

C[C@H]1OC(c2c(F)cccc2F)=N[C@@H]1c1ccc(Br)cc1 (mixture of isomers) [Compound 24, (4R,5R)- and (4S,5S)-4-(4-bromophenyl)-2-(2,6-difluorophenyl)-5-methyl-4,5-dihydro-1,3-oxazole] was tested, and the “CA, activity at 50 ppm” value [1] was “A (90-100)”, the pest or weed control [2, 7] was 90 to 100% and the pest or weed control at 400 ppm [4] was less than 50%. The pest or weed control at 400 ppm [5] was less than 50%.

In the case of CCOc1ccc(-c2ccc([C@@H]3N=C(c4c(F)cccc4F)O[C@H]3C)cc2)cc1 (mixture of isomers) [Compound 33, (4S,5S)- and (4R,5R)-2-(2,6-difluorophenyl)-4-(4'-ethoxy-1,1'-biphenyl-4-yl)-5-methyl-4,5-dihydro-1,3-oxazole], the pest or weed control [2, 7] was 80 to 89%, the pest or weed control at 400 ppm [3] was 90 to 100% and the pest or weed control at 400 ppm [4] was 90 to 100%. It also gave a pest or weed control at 400 ppm [5] of 80 to 89%.

With C[C@H]1OC(c2c(F)cccc2F)=N[C@H]1c1ccc(-c2ccc(OC(F)(F)F)cc2)cc1 (stereo in doubt) [Compound 49, (4S,5R)-2-(2,6-difluorophenyl)-5-methyl-4-[4'-(trifluoromethoxy)-1,1'-biphenyl-4-yl]-4,5-dihydro-1,3-oxazole] the “SM, activity at 2.5 ppm” value [2, 8] was “A (90-100)”, the “BAW, activity at 400 ppm against beet armyworm” value [3] was “A (90-100)” and the “CL, activity at 400 ppm against cabbage looper” value [4] was “A (90-100)”. The “WF, activity at 200 ppm against whitefly” value [6] was “B (80-89)”.

CCOc1ccc(-c2ccc([C@@H]3N=C(c4c(F)cccc4F)O[C@H]3C)c(C)c2)cc1 (mixture of isomers) [Compound 45, (4S,5S)- and (4R,5R)-2-(2,6-difluorophenyl)-4-(4'-ethoxy-3-methyl-1,1'-biphenyl-4-yl)-5-methyl-4,5-dihydro-1,3-oxazole] was tested, and the pest or weed control [2, 7] was less than 50%, the pest or weed control at 400 ppm [3] was 90 to 100% and the pest or weed control at 400 ppm [4] was 90 to 100%. The pest or weed control at 400 ppm [5] was 90 to 100%.

With C[C@@H]1OC(c2c(F)cccc2F)=N[C@@H]1c1ccc(-c2ccc(OC(F)(F)F)cc2)cc1 (stereo in doubt) [Compound 51, (4R,5S)-2-(2,6-difluorophenyl)-5-methyl-4-[4'-(trifluoromethoxy)-1,1'-biphenyl-4-yl]-4,5-dihydro-1,3-oxazole] the “CA, activity at 50 ppm” value [1] was “F (less than 50)”, the pest or weed control [2, 7] was 90 to 100% and the pest or weed control at 400 ppm [3] was 90 to 100%. It also gave a pest or weed control at 400 ppm [4] of 90 to 100% and a pest or weed control at 400 ppm [5] of 80 to 89%.

For C[C@H]1OC(c2c(F)cccc2F)=N[C@@H]1c1ccc(-c2ccc(OC(F)(F)F)cc2)cc1 [Compound 53, (4R,5R)-2-(2,6-difluorophenyl)-5-methyl-4-[4'-(trifluoromethoxy)-1,1'-biphenyl-4-yl]-4,5-dihydro-1,3-oxazole], the “CA, activity at 50 ppm” value [1] was “F (less than 50)”, the “SM, activity at 2.5 ppm” value [2, 8] was “A (90-100)” and the “BAW, activity at 400 ppm against beet armyworm” value [3] was “A (90-100)”. The “CL, activity at 400 ppm against cabbage looper” value [4] was “A (90-100)” and the “TBW, activity at 400 ppm against tobacco budworm” value [5] was “B (80-89)”.
